From publication PMC8803428, “Pharmacokinetics of Ginsenoside Rb1, Rg3, Rk1, Rg5, F2, and Compound K from Red Ginseng Extract in Healthy Korean Volunteers” (Evidence-based Complementary and Alternative Medicine : eCAM, 2022)
Read-outs that look alike come from different tables or passages of the source.

Columns and labels:
[1] = parameters: method as in earlier work; conditions: after oral Korean Red ginseng extract, ref 25 (Kim et al.); cited from earlier work
[2] = Stability of the ginsenosides in human plasma (QC samples, LC-MS/MS method validation); assay type: in vitro ADME
Protocol: The LC-MS/MS method was validated to determine selectivity, lower limits of quantification (LLOQ), accuracy, precision, recovery, matrix effect, and stability, according to the guideline for validating the bioanalytical method. The selectivity of the method was evaluated by comparison of blank plasma from six different men to the corresponding spiked plasma sample at the level of LLOQ to investigate the potential interferences at the LC chromatographic conditions for ginsenoside analytes and IS. The signal-to-noise ratio (S/N) of the LLOQ sample was at least five times the response compared to the blank samples. Each calibration curve was constructed by plotting the peak area ratio (y) of the analyte to IS against the spiked concentrations (x) of each analyte. Linearity was assessed by weighted (1/x^2) least squares regression analysis. The LLOQ was defined as the lowest concentration on the calibration curve with an S/N ratio of 10, where the precision and accuracy bias were within ±20% by five replicate analyses. The intra- and interday precision and accuracy assessments were performed at four concentrations with five replicates on the same day and three consecutive days, respectively. The acceptance criterion recommended by the guideline of precision and the accuracy was ±15% of the nominal concentration. The recovery of the seven ginsenosides was determined at three QC levels with three replicates by comparing the peak areas of plasma extracts spiked with analytes before extraction with those of the postextraction spiked samples at the same concentration. The matrix effects were investigated by comparing the peak areas of the analytes dissolved in the pretreated blank plasma with the corresponding concentrations prepared in the reconstitution solution with three replicates. The stability of the analytes in human plasma was assessed by analyzing five replicates of plasma samples at low, medium, and high QC levels under four different conditions. Short-term stability was evaluated after the exposure of QC samples to room temperature for 19 h before processing and analysis. The freeze and thaw stability was tested after three repeated cycles of thawing at room temperature and freezing at approximately −70°C. The long-term stability was assessed after storage at approximately −70°C for 50 days. The post-preparative stability was examined after the exposure of processed samples at ambient temperature (stored in an HPLC autosampler) for 34 h.

[3] = Pharmacokinetics of ginsenosides in plasma after a single oral dose of RG or BRG capsules in healthy Korean men (LC-MS/MS); assay type: in vivo, human; conditions: for AUC(0-t): read-out: AUC(0–t)
Source text: This study was designed as a randomized, open-label, single-dose, crossover study with washout every 1 week to evaluate the pharmacokinetics and safety of ginsenosides. Subjects were randomly assigned to either the RG or BRG group during the first period of the study (Figure 2). After 1 week of the washout period, other products that were not received in the first period were provided. All enrolled subjects were hospitalized at Bestian Clinical Trial Center on the day before taking RG or BRG. Subjects were provided regular meals, and additional food intake was restricted after the meal. The next day, the subjects who had maintained the fasting state for 10 h took the capsules corresponding to 5 g of RG and BRG orally. Water was restricted for 1 h before and after intake, and food intake was restricted for 4 h after administration. After 4 h, all subjects received a standardized meal. In addition, lying down or sleeping was prohibited for 8 h after oral administration. Blood samples (5 mL) were collected before dosing and at each time point (0, 0.5, 1, 2, 4, 6, 8, 10, 12, and 24 h) after dosing. All blood samples were collected in heparin-treated tubes. The blood samples were promptly centrifuged at 3,000 rpm for 10 min at 4°C, and the plasma samples obtained were stored in a deep freezer at −70 ± 10°C until assay.
All analyses were performed using an Agilent 1200 series HPLC system (Agilent) with a Luna Phenyl-Hexyl column (2.0 × 150 mm, 5 μm; Phenomenex, CA, USA). The mobile phase comprised water (solvent A) and acetonitrile (solvent B) containing 0.1% formic acid. The flow rate of the mobile phase was 0.25–0.35 mL/min. The initial condition of 70% solvent A was set to 5% solvent A over 15 min. The content of ginsenosides in human plasma was measured using an API 5500 mass spectrometer (AB Sciex, Foster City, CA, USA) capable of multiple reaction monitoring (MRM). The parent-daughter ion pairs monitored were 845.5 ⟶ 799.6 for Rg1, 1153.6 ⟶ 1107.5 for Rb1, 829.4 ⟶ 783.5 for Rg3, and F2, 811.4 ⟶ 161.0 for Rg5 and Rk1, 667.4 ⟶ 161.0 for CK, and 825.4 ⟶ 779.3 for digoxin as an IS in the negative ion mode. Nitrogen gas was used in the nebulizer and the collision cell. The ion spray voltage was set to 5500 V.
Standard plasma samples were prepared such that each ginsenoside was in the concentration range of 0.5–100 ng/mL; 10 μL of a standard mixture of six kinds of ginsenosides (Rg1, Rb1, Rg5 + Rk1, F2, and CK) was added to 90 μL of blank human plasma. Rg3 was prepared in the concentration range of 0.2–40 ng/mL. Standard plasma samples (100 μL) were added to 200 μL of methanol containing 50 ng/mL digoxin, an IS. These were mixed for 1 min and then centrifuged at 12,000 rpm for 5 min at 4°C. Then, 100 μL of the supernatant was transferred to an LC vial, and 10 μL was injected into the LC-MS/MS system. Plasma samples stored at −70°C were thawed at room temperature. Samples for LC-MS/MS analysis were pretreated in the same manner as standard plasma samples.
Plasma concentrations of seven ginsenosides were calculated from calibration curves by calculating the ratio of the peak area of the test substance to the peak area of the IS. The following pharmacokinetic parameters were measured using Phoenix WinNonlin 6.3 (Pharsight Co, CA, USA): time to reach maximum observed plasma drug concentration (Tmax), maximum observed plasma drug concentration (Cmax), area under the plasma drug concentration-time curve from 0 h to the final measured time (AUC(0–t)), area under the plasma drug concentration–time curve from 0 h to infinity (AUC(0–∞)), and terminal elimination half-life (t1/2).

## CC(C)=CCCC(C)(OC1OC(CO)C(O)C(O)C1O)C1CCC2(C)C1C(O)CC1C3(C)CCC(O)C(C)(C)C3CCC12C (centres unmarked) [CK, compound K]
[1]
  Cmax: 8.35 ± 1.97 ng/mL
  half-life of CK compared with that of Rb1: seven times shorter
[2]; human, 1.5 ng/mL
  Freeze-thaw stability, concentration found: 104.03 ± 7.57%
[2]; human, 80 ng/mL
  Freeze-thaw stability, concentration found: 96.17 ± 2.51%
[2]; human, 19 h, 1.5 ng/mL
  Short-term stability, concentration found: 99.90 ± 4.38%
[2]; human, 19 h, 80 ng/mL
  Short-term stability, concentration found: 98.69 ± 2.03%
[2]; human, 34 h, 1.5 ng/mL
  Autosampler stability, concentration found: 101.24 ± 4.59%
[2]; human, 34 h, 80 ng/mL
  Autosampler stability, concentration found: 99.56 ± 1.44%
[2]; human, 50 days, 1.5 ng/mL
  Long-term stability, concentration found: 103.25 ± 4.03%
[2]; human, 50 days, 80 ng/mL
  Long-term stability, concentration found: 103.02 ± 5.53%
[3]; in vivo
  detection in plasma at the initial time point (0 h) of the second treatment period: did not detect
[3]; male, human, in vivo
  AUC(0–t) of CK, times higher than that of F2: > 5.03 times
  mean Tmax in the RG group relative to the BRG group (times lower): approximately 1.71 times
[3]; male, human, in vivo, po
  AUC(0–t) in the BRG group, times higher than in the RG group: > 28.0 times
  AUC(0–∞): 3.72 ± 7.91 ng·h/mL
  T 1/2: 1.36 ± 2.61 h
  T max: 4.77 ± 3.61 h
[3]; male, human, in vivo, po, AUC(0–∞)
  AUC(0-inf): 457 ± 259 ng·h/mL
[3]; male, human, in vivo, po, T 1/2
  half-life: 7.72 ± 4.66 h
[3]; male, human, in vivo, po, T max
  Tmax: 8.15 ± 10.2 h

## CC(C)=CCC[C@](C)(O[C@@H]1O[C@H](CO[C@@H]2O[C@H](CO)[C@@H](O)[C@H](O)[C@H]2O)[C@@H](O)[C@H](O)[C@H]1O)[C@H]1CC[C@]2(C)[C@@H]1[C@H](O)C[C@@H]1[C@@]3(C)CC[C@H](O[C@@H]4O[C@H](CO)[C@@H](O)[C@H](O)[C@H]4O[C@@H]4O[C@H](CO)[C@@H](O)[C@H](O)[C@H]4O)C(C)(C)[C@@H]3CC[C@]12C [Rb1, ginsenoside Rb1]
[1]
  Cmax: 3.94 ± 1.97 ng/mL
[2]; human plasma, 3 cycles, 1.5 ng/mL
  Freeze-thaw stability, concentration found: 98.65 ± 0.66%
[2]; human plasma, 3 cycles, 80 ng/mL
  Freeze-thaw stability, concentration found: 100.70 ± 2.36%
[2]; human plasma, 19 h at room temperature, 1.5 ng/mL
  Short-term stability, concentration found: 98.19 ± 1.40%
[2]; human plasma, 19 h at room temperature, 80 ng/mL
  Short-term stability, concentration found: 96.93 ± 5.41%
[2]; human plasma, 50 days at -70℃, 1.5 ng/mL
  Long-term stability, concentration found: 102.01 ± 1.78%
[2]; human plasma, 50 days at -70℃, 80 ng/mL
  Long-term stability, concentration found: 105.06 ± 2.73%
[2]; processed plasma samples, 34 h at ambient temperature, 1.5 ng/mL
  Autosampler stability, concentration found: 97.98 ± 3.55%
[2]; processed plasma samples, 34 h at ambient temperature, 80 ng/mL
  Autosampler stability, concentration found: 100.35 ± 5.32%
[3]; after 1 week washout
  detection in plasma at the initial time point (0 h) of the second treatment period: did not detect
[3]; male, human, in vivo, po, C max
  Cmax: 4.04 ± 1.71 ng/mL
[3]; male, human, plasma, oral, 5 g, range over RG and BRG groups, read-out: t1/2
  half-life: 38 to 46 h
[3]; male, human, plasma, po, 5 g, plasma, after single oral 5 g BRG, n = 13, mean ± SD
  AUC(0-t): 56.9 ± 19.6 ng·h/mL
[3]; male, human, plasma, po, 5 g, plasma, after single oral 5 g BRG, n = 13, mean ± SD, read-out: AUC(0–∞)
  AUC(0-inf): 182 ± 94.4 ng·h/mL
[3]; male, human, plasma, po, 5 g, plasma, after single oral 5 g BRG, n = 13, mean ± SD, read-out: C max
  Cmax: 3.19 ± 1.13 ng/mL
[3]; male, human, plasma, po, 5 g, plasma, after single oral 5 g BRG, n = 13, mean ± SD, read-out: T 1/2 (converted)
  half-life: 38.1 ± 13.5 h
[3]; male, human, plasma, po, 5 g, plasma, after single oral 5 g BRG, n = 13, mean ± SD, read-out: T max
  Tmax: 6.92 ± 1.55 h
[3]; male, human, plasma, po, 5 g, plasma, after single oral 5 g RG, n = 13, mean ± SD
  AUC(0-t): 73.2 ± 29.8 ng·h/mL
[3]; male, human, plasma, po, 5 g, plasma, after single oral 5 g RG, n = 13, mean ± SD, read-out: AUC(0–∞)
  AUC(0-inf): 257 ± 115 ng·h/mL
[3]; male, human, plasma, po, 5 g, plasma, after single oral 5 g RG, n = 13, mean ± SD, read-out: T 1/2 (converted)
  half-life: 45.9 ± 21.9 h
[3]; male, human, plasma, po, 5 g, plasma, after single oral 5 g RG, n = 13, mean ± SD, read-out: T max
  Tmax: 7.23 ± 1.92 h
